The text below walks through data of patent publication US12331046B2, “CTPS1 inhibitors and uses thereof” (Nimbus Clotho, Inc., priority 2020, dated 2025).

Each structure is given as a SMILES string. Values joined by “and” are separate entries in the source; they are usually repeats but may differ in a detail not shown here. Equal entries are not always repeated.

In the test the target is human CTPS1 (Homo sapiens (Human), UniProt P17812). The test is described as follows: hCTPS1 biochemical assay (ADP-Glo). To be noted: hCTPS1 25 nM, ATP 120 uM, UTP 160 uM, GTP 60 uM, L-Glutamine 100 uM, 25 degrees C. (In general: ADP-Glo first removes unused ATP, then detects ADP through luciferase.)
Sequence of human CTPS1 (P17812 whole entry): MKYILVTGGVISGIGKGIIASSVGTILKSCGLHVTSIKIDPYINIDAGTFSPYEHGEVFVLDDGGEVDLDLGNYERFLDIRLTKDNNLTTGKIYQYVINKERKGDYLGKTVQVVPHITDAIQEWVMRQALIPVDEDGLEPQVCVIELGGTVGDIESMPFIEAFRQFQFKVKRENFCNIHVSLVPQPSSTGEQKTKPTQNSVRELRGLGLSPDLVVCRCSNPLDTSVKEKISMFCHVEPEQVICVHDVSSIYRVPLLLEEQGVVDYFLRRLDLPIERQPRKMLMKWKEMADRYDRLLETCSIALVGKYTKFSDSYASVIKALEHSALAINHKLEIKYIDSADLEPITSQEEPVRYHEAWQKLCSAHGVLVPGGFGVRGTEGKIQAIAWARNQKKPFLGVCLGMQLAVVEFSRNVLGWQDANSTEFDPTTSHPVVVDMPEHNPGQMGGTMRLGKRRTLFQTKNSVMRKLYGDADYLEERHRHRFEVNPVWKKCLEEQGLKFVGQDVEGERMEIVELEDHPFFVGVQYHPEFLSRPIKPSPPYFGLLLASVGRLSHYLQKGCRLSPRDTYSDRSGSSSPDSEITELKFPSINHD
`CCOc1cncc(-c2cnc(C(=O)N[C@H](CC)c3cc(NS(=O)(=O)C4CC4)ccn3)s2)n1` [I-277]: the IC50 is less than 100 nM. For `CCOc1cncc(-c2cnc(C(=O)N[C@@H](CC)c3cc(NS(=O)(=O)C4CC4)ccn3)s2)n1` [I-278] the value was less than 100 nM; for `Cc1nc(C(=O)NCc2cc(NS(=O)(=O)C3CC3)ccn2)cnc1N1CCC12CCCCC2` [I-279], less than 100 nM.

`CCOc1cncc(-c2cccc(C(=O)NCc3cccc(NS(=O)(=O)C(F)F)c3)c2)n1` [I-280, N-[[3-(difluoromethanesulfonamido)phenyl]methyl]-3-(6-ethoxypyrazin-2-yl)benzamide]: the half-maximal inhibitory concentration (IC50) is not below 1000 nM. As for `CCOc1cncc(-n2ccc(C(=O)NC3(c4cccc(NS(=O)(=O)C(F)F)c4)CC3)n2)n1` [I-282, N-[1-[3-(difluoromethanesulfonamido)phenyl]cyclopropyl]-1-(6-ethoxypyrazin-2-yl)pyrazole-3-carboxamide], the IC50 is < 100 nM and ≥ 1000 nM. In the case of `CCOc1cncc(-n2cnc(C(=O)NC3(c4cccc(NS(=O)(=O)C(F)F)c4)CC3)c2)n1` [I-283, N-[1-[3-(difluoromethanesulfonamido)phenyl]cyclopropyl]-1-(6-ethoxypyrazin-2-yl)imidazole-4-carboxamide], the IC50 is less than 100 nM. For `CCOc1cncc(-c2ccc(C(=O)N3CCC[C@@H]3c3ccnc(NS(=O)(=O)C4CC4)n3)c(F)c2)n1` [I-285, N-[4-[(2R)-1-[4-(6-ethoxypyrazin-2-yl)-2-fluorobenzoyl]pyrrolidin-2-yl]pyrimidin-2-yl]cyclopropanesulfonamide] the value was 100 to 1000 nM. In turn, `CCOc1cncc(-c2ccc(C(=O)N3CCC[C@H]3c3ccnc(NS(=O)(=O)C4CC4)n3)c(F)c2)n1` [I-286, N-[4-[(2S)-1-[4-(6-ethoxypyrazin-2-yl)-2-fluorobenzoyl]pyrrolidin-2-yl]pyrimidin-2-yl]cyclopropanesulfonamide] came in with a half-maximal inhibitory concentration (IC50) of less than 100 nM. In turn, `CCOc1cncc(-c2ccc(NC(=O)C(NC(=O)CCOCCNC(=O)OC(C)(C)C)c3csc(NS(=O)(=O)C4CC4)n3)cc2)n1` (stereo not shown) [Z-7, tert-butyl 2-(3-(1-(2-(cyclopropanesulfonamido)thiazol-4-yl)-2-(4-(6-ethoxypyrazin-2-yl)phenylamino)-2-oxoethylamino)-3-oxopropoxy)ethylcarbamate] returned a half-inhibitory concentration (IC50) of less than 100 nM.

As to `CCOc1cncc(-c2ccc(NC(=O)C(NC(=O)CCOCCOCCNC(=O)OC(C)(C)C)c3csc(NS(=O)(=O)C4CC4)n3)cc2)n1` (stereo not shown) [Z-8, tert-butyl 2-(2-(3-(1-(2-(cyclopropanesulfonamido)thiazol-4-yl)-2-(4-(6-ethoxypyrazin-2-yl)phenylamino)-2-oxoethylamino)-3-oxopropoxy)ethoxy)ethylcarbamate], the half-maximal inhibitory concentration (IC50) was less than 100 nM.

Usually IC50 stands for the midpoint of a concentration-inhibition curve. A high value points to weaker potency in that assay.
